Target: NAD-dependent protein deacylase sirtuin-5, mitochondrial (Homo sapiens) (UniProt Q9NXA8)
Assay: SIRT5 thermal stabilisation by ligands, biophysical, StarGazer light scattering (AID 458)
Conditions: at 1 mM, protein 12 µM, stronger effect = higher value

NAD-dependent protein deacylase sirtuin-5, mitochondrial (Homo sapiens), sequence (Q9NXA8 whole entry, looked up): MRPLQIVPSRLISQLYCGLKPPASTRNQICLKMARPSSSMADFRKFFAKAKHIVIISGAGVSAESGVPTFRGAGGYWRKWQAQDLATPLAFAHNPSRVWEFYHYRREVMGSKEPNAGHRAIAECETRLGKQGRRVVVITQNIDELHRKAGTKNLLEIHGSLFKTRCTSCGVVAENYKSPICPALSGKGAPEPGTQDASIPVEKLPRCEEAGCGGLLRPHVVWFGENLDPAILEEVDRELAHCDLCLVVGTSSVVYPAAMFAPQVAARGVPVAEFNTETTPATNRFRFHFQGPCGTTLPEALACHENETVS

Tagg shift [°C]	Compound
27	Cc1ccc(C(=O)Nc2ccc(S(=O)(=O)O)c3cc(S(=O)(=O)O)cc(S(=O)(=O)O)c23)cc1NC(=O)c1cccc(NC(=O)Nc2cccc(C(=O)Nc3cc(C(=O)Nc4ccc(S(=O)(=O)O)c5cc(S(=O)(=O)O)cc(S(=O)(=O)O)c45)ccc3C)c2)c1
5.1	CC(/C=C/C(=O)NO)=C\[C@@H](C)C(=O)c1ccc(N(C)C)cc1
